We go through five compounds from ChEMBL document CHEMBL4513145, “CO-ADD screening of Biotechnology Research Centre (C.R.B.t) (Algeria) compounds”.

One assay has as its system Staphylococcus aureus. The experiment in a line: microbe, parasite or virus in culture. The conditions noted are these: ATCC 43300, 18 h, ASSAY_TEST Inhibition of Bacterial Growth, detection method Absorption (OD600), MEDIA CAMHB, plate type 384well, NBS, CORNING #3640.
Another assay relates to Klebsiella pneumoniae. The experiment in a line: microbe, parasite or virus in culture. As to conditions: ATCC 700603, 18 h, ASSAY_TEST Inhibition of Bacterial Growth, detection method Absorption (OD600), MEDIA CAMHB, plate type 384well, NBS, CORNING #3640.
The subject of a further assay is HEK293. The experiment in a line: cells. It counts as functional. The conditions noted are these: Homo sapiens, ATCC CRL1573, HEK293; ASSAY_TEST Inhibition of Cell Viability; detection method Resazurin; Fluorescence (ex560/em590); MEDIA DMEM with 10% FBS; plate type 384well; TC; CORNING #3712; time 18 hr.
A further assay concerns Candida albicans. Kind of assay: microbe, parasite or virus in culture. As to conditions: ATCC 90028, ASSAY_TEST Inhibition of Fungal Growth, detection method Absorption (OD530), plate type 384well, NBS, CORNING #3640.
In another assay the test system is Escherichia coli. The experiment in a line: microbe, parasite or virus in culture. The conditions noted are these: ATCC 25922, 18 h, ASSAY_TEST Inhibition of Bacterial Growth, detection method Absorption (OD600), MEDIA CAMHB, plate type 384well, NBS, CORNING #3640.
For another assay, the system named is Pseudomonas aeruginosa. Kind of assay: microbe, parasite or virus in culture. As to conditions: ATCC 27853, 18 h, ASSAY_TEST Inhibition of Bacterial Growth, detection method Absorption (OD600), MEDIA CAMHB, plate type 384well, NBS, CORNING #3640.
For a further assay, the system named is Acinetobacter baumannii. The experiment in a line: microbe, parasite or virus in culture. The conditions noted are these: ATCC 19606, 18 h, ASSAY_TEST Inhibition of Bacterial Growth, detection method Absorption (OD600), MEDIA CAMHB, plate type 384well, NBS, CORNING #3640.

Values after ≈ are worked out from the molar mass of the structure shown.

Description for Acinetobacter baumannii: Antibacterial activity against Acinetobacter baumannii ATCC 19606 (CO-ADD:GN_034); MIC in CAMBH media using NBS plates, by OD600
Description for Candida albicans: Antifungal activity against Candida albicans ATCC 90028 (CO-ADD:FG_001); MIC in YNB media using NBS plates, by OD630
Description for Cryptococcus neoformans: Antifungal activity against Cryptococcus neoformans H99 ATCC 208821 (CO-ADD:FG_002); MIC in YNB media using NBS plates, by Resazurin OD(600-570)
Description for Escherichia coli: Antibacterial activity against Escherichia coli ATCC 25922 (CO-ADD:GN_001); MIC in CAMBH media using NBS plates, by OD(600)
Description for Klebsiella pneumoniae: Antibacterial activity against Klebsiella pneumoniae MDR ATCC 70063 (CO-ADD:GN_003); MIC in CAMBH media using NBS plates, by OD(600)
Description for Pseudomonas aeruginosa: Antibacterial activity against Pseudomonas aeruginosa ATCC 27853 (CO-ADD:GN_042); MIC in CAMBH media using NBS plates, by OD(600)
Description for Staphylococcus aureus: Antibacterial activity against Staphylococcus aureus MRSA ATCC 43300 (CO-ADD:GP_020); MIC in CAMBH media, using NBS plates, by OD(600)

What is called CC50 is the concentration giving 50% cytotoxicity. Higher therefore signals lower toxicity to the cells. `O=C(OCc1ccccc1)N1CC(Cc2ccccc2)C(O)O1` (stereo not given): the MIC in the assay with Staphylococcus aureus, in the assay on Klebsiella pneumoniae, in the assay with Candida albicans, in the assay on Escherichia coli, with Pseudomonas aeruginosa and with Cryptococcus neoformans was over 32 µg/mL each time. In addition, in the assay on Acinetobacter baumannii, the MIC is over 32 µg/mL. In the assay on HEK293, the CC50 was over 32 µg/mL.

Consider `CC1CN(S(=O)(=O)c2ccc([N+](=O)[O-])cc2)N(C(=O)OC(C)(C)C)C1=O` (stereo not given), for which the MIC with Staphylococcus aureus is 32 µg/mL (≈ 83 µM); against Klebsiella pneumoniae, over 32 µg/mL; with Candida albicans, over 32 µg/mL; in the assay with Escherichia coli it was over 32 µg/mL; in the assay with Pseudomonas aeruginosa, over 32 µg/mL; against Cryptococcus neoformans it was over 32 µg/mL. In the assay on Acinetobacter baumannii, the MIC was over 32 µg/mL. Also, in the assay on HEK293, the CC50 came out at 6.8 µg/mL (≈ 17.6 µM).

In the case of `CCCCCCCC1CN(C(=O)OCc2ccccc2)OC1O` (stereo not given), the MIC with Staphylococcus aureus, against Klebsiella pneumoniae, with Candida albicans, with Escherichia coli, with Pseudomonas aeruginosa and against Cryptococcus neoformans was over 32 µg/mL in each case. The compound further registered an MIC against Acinetobacter baumannii of over 32 µg/mL. In addition, the cytotoxic concentration (CC50) in the assay on HEK293 is over 32 µg/mL.

Take `CC1CN(C(=O)OCc2ccccc2)OC1O` (stereo not given): the MIC is over 32 µg/mL with Staphylococcus aureus; over 32 µg/mL in the assay on Klebsiella pneumoniae; over 32 µg/mL in the assay with Candida albicans; over 32 µg/mL in the assay with Escherichia coli; over 32 µg/mL against Pseudomonas aeruginosa; 32 µg/mL (≈ 135 µM) in the assay on Cryptococcus neoformans. Besides, in the assay with Acinetobacter baumannii, the MIC is over 32 µg/mL. Further, the CC50 with HEK293 was over 32 µg/mL.

On to `CC1CN(S(=O)(=O)c2ccc([N+](=O)[O-])cc2)N(C(=O)OC(C)(C)C)C1O` (stereo not given), for which the MIC against Staphylococcus aureus, in the assay on Klebsiella pneumoniae, in the assay with Candida albicans, against Escherichia coli, against Pseudomonas aeruginosa and with Cryptococcus neoformans was over 32 µg/mL throughout. This compound also yielded an MIC with Acinetobacter baumannii of over 32 µg/mL. This compound showed a CC50 with HEK293 of 6.19 µg/mL (≈ 16 µM).
